From PubChem BioAssay (NCI)
“And” between values parts separate entries of the source, which are not always exact repeats. Equal values may be shown once.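 Interpolation was linear, between the two tested concentrations surrounding the appropriate level; five concentrations were tested over 48 hours in 96-well plates. GI50 is the concentration that inhibits growth by half. At the TGI there is no net growth.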

Tests used:
Assay in all cases: NCI tumour cell line growth inhibition, 48 h
786-0 renal = test system: 786-0 renal
A498 renal = test system: A498 renal
A549 NSCLC = test system: A549 NSCLC
ACHN renal = test system: ACHN renal
CAKI-1 renal = test system: CAKI-1 renal
CCRF-CEM leukemia = test system: CCRF-CEM leukemia
COLO 205 colon = test system: COLO 205 colon
DLD-1 colon = test system: DLD-1 colon
DMS 114 small cell lung = test system: DMS 114 small cell lung
DMS 273 small cell lung = test system: DMS 273 small cell lung
EKVX NSCLC = test system: EKVX NSCLC
HCC-2998 colon = test system: HCC-2998 colon
HCT-116 colon = test system: HCT-116 colon
HCT-15 colon = test system: HCT-15 colon
HL-60(TB) leukemia = test system: HL-60(TB) leukemia
HOP-18 NSCLC = test system: HOP-18 NSCLC
HOP-62 NSCLC = test system: HOP-62 NSCLC
HOP-92 NSCLC = test system: HOP-92 NSCLC
HT29 colon = test system: HT29 colon
IGROV1 ovarian = test system: IGROV1 ovarian
K-562 leukemia = test system: K-562 leukemia
KM12 colon = test system: KM12 colon
KM20L2 colon = test system: KM20L2 colon
LOX IMVI melanoma = test system: LOX IMVI melanoma
LXFL 529 NSCLC = test system: LXFL 529 NSCLC
M14 melanoma = test system: M14 melanoma
M19-MEL melanoma = test system: M19-MEL melanoma
MALME-3M melanoma = test system: MALME-3M melanoma
MOLT-4 leukemia = test system: MOLT-4 leukemia
NCI-H226 lung = test system: NCI-H226 lung
NCI-H23 lung = test system: NCI-H23 lung
NCI-H460 lung = test system: NCI-H460 lung
NCI-H522 lung = test system: NCI-H522 lung
OVCAR-3 ovarian = test system: OVCAR-3 ovarian
OVCAR-4 ovarian = test system: OVCAR-4 ovarian
OVCAR-5 ovarian = test system: OVCAR-5 ovarian
OVCAR-8 ovarian = test system: OVCAR-8 ovarian
RPMI-8226 leukemia = test system: RPMI-8226 leukemia
RXF 393 renal = test system: RXF 393 renal
RXF-631 renal = test system: RXF-631 renal
SF-268 CNS = test system: SF-268 CNS
SF-295 CNS = test system: SF-295 CNS
SF-539 CNS = test system: SF-539 CNS
SK-MEL-2 melanoma = test system: SK-MEL-2 melanoma
SK-MEL-28 melanoma = test system: SK-MEL-28 melanoma
SK-MEL-5 melanoma = test system: SK-MEL-5 melanoma
SK-OV-3 ovarian = test system: SK-OV-3 ovarian
SN12C renal = test system: SN12C renal
SNB-19 CNS = test system: SNB-19 CNS
SNB-75 CNS = test system: SNB-75 CNS
SNB-78 CNS = test system: SNB-78 CNS
SR leukemia = test system: SR leukemia
SW-620 colon = test system: SW-620 colon
TK-10 renal = test system: TK-10 renal
U251 CNS = test system: U251 CNS
UACC-257 melanoma = test system: UACC-257 melanoma
UACC-62 melanoma = test system: UACC-62 melanoma
UO-31 renal = test system: UO-31 renal
XF 498 CNS = test system: XF 498 CNS
BT-549 breast = test system: BT-549 breast
DU-145 prostate = test system: DU-145 prostate
MCF7 breast = test system: MCF7 breast
MDA-MB-231 breast = test system: MDA-MB-231 breast
MDA-MB-435 = test system: MDA-MB-435
MDA-N = test system: MDA-N
NCI/ADR-RES ovarian = test system: NCI/ADR-RES ovarian
P388 leukemia = test system: P388 leukemia
P388/ADR leukemia = test system: P388/ADR leukemia
PC-3 prostate = test system: PC-3 prostate

## CC(=O)OC1COC(N2CCc3ccccc32)C(OC(C)=O)C1OC(C)=O (stereo not given)
786-0 renal
  TGI: > 100 µM
A498 renal
  TGI: > 100 µM
A549 NSCLC
  TGI: > 100 µM
ACHN renal
  TGI: > 100 µM
CAKI-1 renal
  TGI: > 100 µM
CCRF-CEM leukemia
  TGI: > 100 µM
COLO 205 colon
  TGI: > 100 µM
DLD-1 colon
  TGI: > 100 µM
DMS 114 small cell lung
  TGI: > 100 µM
DMS 273 small cell lung
  TGI: > 100 µM
EKVX NSCLC
  TGI: > 100 µM
HCC-2998 colon
  TGI: > 100 µM
HCT-116 colon
  TGI: > 100 µM
HCT-15 colon
  TGI: > 100 µM
HL-60(TB) leukemia
  GI50: 89.3 µM and 28.2 µM
  TGI: > 100 µM
HOP-18 NSCLC
  TGI: > 100 µM
HOP-62 NSCLC
  TGI: > 100 µM
HOP-92 NSCLC
  GI50: > 100 µM
  TGI: > 100 µM
HT29 colon
  TGI: > 100 µM
IGROV1 ovarian
  TGI: > 100 µM
K-562 leukemia
  TGI: > 100 µM
KM12 colon
  TGI: > 100 µM
KM20L2 colon
  TGI: > 100 µM
LOX IMVI melanoma
  TGI: > 100 µM
LXFL 529 NSCLC
  TGI: > 100 µM
M14 melanoma
  TGI: > 100 µM
M19-MEL melanoma
  TGI: > 100 µM
MALME-3M melanoma
  TGI: > 100 µM
MOLT-4 leukemia
  TGI: > 100 µM
NCI-H226 lung
  TGI: > 100 µM
NCI-H23 lung
  TGI: > 100 µM
NCI-H460 lung
  TGI: > 100 µM
NCI-H522 lung
  TGI: > 100 µM
OVCAR-3 ovarian
  TGI: > 100 µM
OVCAR-4 ovarian
  TGI: > 100 µM
OVCAR-5 ovarian
  TGI: > 100 µM
OVCAR-8 ovarian
  TGI: > 100 µM
RPMI-8226 leukemia
  TGI: > 100 µM
RXF 393 renal
  TGI: > 100 µM
RXF-631 renal
  TGI: > 100 µM
SF-268 CNS
  TGI: > 100 µM
SF-295 CNS
  TGI: > 100 µM
SF-539 CNS
  TGI: > 100 µM
SK-MEL-2 melanoma
  TGI: > 100 µM
SK-MEL-28 melanoma
  TGI: > 100 µM
SK-MEL-5 melanoma
  TGI: > 100 µM
SK-OV-3 ovarian
  TGI: > 100 µM
SN12C renal
  TGI: > 100 µM
SNB-19 CNS
  TGI: > 100 µM
SNB-75 CNS
  GI50: > 100 µM
  TGI: > 100 µM
SNB-78 CNS
  TGI: > 100 µM
SR leukemia
  TGI: > 100 µM
SW-620 colon
  TGI: > 100 µM
TK-10 renal
  TGI: > 100 µM
U251 CNS
  TGI: > 100 µM
UACC-257 melanoma
  TGI: > 100 µM
UACC-62 melanoma
  TGI: > 100 µM
UO-31 renal
  TGI: > 100 µM
XF 498 CNS
  TGI: > 100 µM

## COc1ccc2nc3ccccc3c(NCCN(C)CCCl)c2c1
786-0 renal
  TGI: 1.89 µM
A498 renal
  TGI: 3.02 µM
A549 NSCLC
  TGI: 4.88 µM
ACHN renal
  TGI: 1.91 µM
BT-549 breast
  TGI: 3.24 µM
CAKI-1 renal
  TGI: 2.2 µM
CCRF-CEM leukemia
  TGI: 3.67 µM
COLO 205 colon
  TGI: 1.84 µM
DLD-1 colon
  TGI: 3.45 µM
DMS 114 small cell lung
  TGI: 2.31 µM
DMS 273 small cell lung
  TGI: 2.35 µM
DU-145 prostate
  TGI: 4.47 µM
EKVX NSCLC
  TGI: 4.37 µM
HCC-2998 colon
  TGI: 2.15 µM
HCT-116 colon
  TGI: 2.63 µM
HCT-15 colon
  TGI: 7.56 µM
HL-60(TB) leukemia
  TGI: 1.73 µM
HOP-18 NSCLC
  TGI: 6.29 µM
HOP-62 NSCLC
  TGI: 3.7 µM
HOP-92 NSCLC
  TGI: 3.85 µM
HT29 colon
  TGI: 4.95 µM
IGROV1 ovarian
  TGI: 2.58 µM
K-562 leukemia
  TGI: 9.24 µM
KM12 colon
  TGI: 4.13 µM
KM20L2 colon
  TGI: 2.88 µM
LOX IMVI melanoma
  TGI: 1.77 µM
LXFL 529 NSCLC
  TGI: 1.85 µM
M14 melanoma
  TGI: 2.29 µM
M19-MEL melanoma
  TGI: 2.48 µM
MALME-3M melanoma
  TGI: 1.5 µM
MCF7 breast
  TGI: 4.18 µM
MDA-MB-231 breast
  TGI: 2.98 µM
MDA-MB-435
  TGI: 2.15 µM
MDA-N
  TGI: 2.4 µM
MOLT-4 leukemia
  TGI: 0.497 µM
NCI-H226 lung
  TGI: 2.26 µM
NCI-H23 lung
  TGI: 1.88 µM
NCI-H460 lung
  TGI: 2.49 µM
NCI-H522 lung
  TGI: 1.51 µM
NCI/ADR-RES ovarian
  TGI: 3.79 µM
OVCAR-3 ovarian
  TGI: 3.29 µM
OVCAR-4 ovarian
  TGI: 2.8 µM
OVCAR-5 ovarian
  TGI: 3.84 µM
OVCAR-8 ovarian
  TGI: 2.76 µM
P388 leukemia
  TGI: 1.51 µM
P388/ADR leukemia
  TGI: 8.73 µM
PC-3 prostate
  TGI: 2.24 µM
RPMI-8226 leukemia
  TGI: 1.53 µM
RXF 393 renal
  TGI: 1.86 µM
SF-268 CNS
  TGI: 3.85 µM
SF-295 CNS
  TGI: 4.17 µM
SF-539 CNS
  TGI: 1.85 µM
SK-MEL-2 melanoma
  TGI: 2.41 µM
SK-MEL-28 melanoma
  TGI: 3.97 µM
SK-MEL-5 melanoma
  TGI: 2.03 µM
SK-OV-3 ovarian
  TGI: 3.5 µM
SN12C renal
  TGI: 2.86 µM
SNB-19 CNS
  TGI: 7.44 µM
SNB-75 CNS
  TGI: 4.07 µM
SNB-78 CNS
  TGI: 4.76 µM
SR leukemia
  TGI: 2.31 µM
SW-620 colon
  TGI: 1.91 µM
TK-10 renal
  TGI: 15.7 µM
U251 CNS
  TGI: 3.16 µM
UACC-257 melanoma
  TGI: 9.46 µM
UACC-62 melanoma
  TGI: 2.03 µM
UO-31 renal
  TGI: 3.38 µM
XF 498 CNS
  TGI: 2.3 µM
